In assay [1] the test system is phenylquinone-induced writhing reaction. As to the kind of experiment: phenylquinone-induced writhing test in mice. Format: in vivo. Particulars: male NMRI mice, phenylquinone i.p. 10 minutes later; for inhibition in vivo at 10 mg/kg: Mus musculus, iv, 10 min, 10 mg/kg intravenously. The method, then:
Analgesic Effect in the Writhing Test in Mice
The analgesic effect was investigated in the phenylquinone-induced writhing test in mice (as modified by I. C. Hendershot and J. Forsaith (1959) J. Pharmacol. Exp. Ther. 125, 237-240). Male NMRI mice weighing 25 to 30 g were used for the test. Groups of 10 animals each received by intraperitoineal application, for each substance dose, 0.3 ml/mouse of a 0.02% aqueous solution of phenylquinone (phenylbenzoquinone, Sigma Company, Deisenhofen; solution prepared with addition of 5% of ethanol and kept in a water bath at 45° C.) 10 minutes after intravenous administration of the test substances. The animals were placed individually in observation cages. The number of pain-induced stretching movements (so-called writhing reactions=straightening of the body together with stretching of the rear extremities) was measured by means of a push-button counter 5 to 20 minutes after administration of the phenylquinone. Animals that had received only physiological saline solution served as controls. All substances were tested in the standard dose of 10 mg/kg. The percentage inhibition (% inhibition) of the writhing reaction produced by a substance was calculated according to the following formula: [formula]
(In general: In writhing tests, fewer writhes than in controls are read as antinociception.)

Assay [2] deals with binding site 2 of the sodium channel. As to the kind of experiment: BTX binding, sodium channel. Particulars: 10 μM, percentage inhibition, [3H]-batrachotoxin A20 α-benzoate 10 nM, rat cerebral cortex synaptosomes. As to the method: Binding Investigations in the Sodium Channel
Binding Site 2 (BTX Binding)
The binding site 2 of the sodium channel is the so-called batrachotoxin (BTX) binding site. [^3H]-batrachlotoxin A20 α-benzoate (10 nM in the assay) was used as ligand. These ion channel particles (synaptosomes) were concentrated from rat cerebral cortex according to the procedure of Gray and Whittaker (E. G. Gray and V. P. Whittaker (1962) J. Anat. 76, 79-88). The radioactivity that is measured in the presence of veratridine (0.3 mM in the assay) is defined as non-specific binding. The material was incubated at 37° C. for 120 minutes. The assay conditions are carried out according to the protocol published by Pauwels, Leysen and Laduron (P. J. Pauwels, J. E. Leysen and P. M. Laduron (1986) Eur. J. Pharmacol. 124, 291-298).
(N=3, i.e. mean values±SEM from 3 independent series of experiments that were carried out in the form of triple parallel experiments).
(§1) For this purpose IC50 values are obtained, which can be converted to inhibitor constants (Ki) according to the “Cheng-Prusoff equation” (Y. C. Clieng and W. H. Prusoff (1973) Biochem. Pharmacol. 22, 3099-3108). The IC50 values were obtained by means of the computer program “Figure P” (version 6.0, Biosoft, Cambridge, England). Km values were calculated according to Lineweaver and Burk (H. Lineweaver and D. Burk (1934) J. Am. Chem. Soc. 56, 658-666). The “Ligand” computer program (version 4, Biosoft, England) was used to obtain Ken values.

For assay [3], the target named is T1, NA transporter (Rattus norvegicus, UniProt Q63380).
T1 construct: synaptosomes are isolated fresh from rat brains; from tissue; host or cells: rat hypothalamus synaptosomes (P2 fraction)
T1 sequence (Q63380 1-617): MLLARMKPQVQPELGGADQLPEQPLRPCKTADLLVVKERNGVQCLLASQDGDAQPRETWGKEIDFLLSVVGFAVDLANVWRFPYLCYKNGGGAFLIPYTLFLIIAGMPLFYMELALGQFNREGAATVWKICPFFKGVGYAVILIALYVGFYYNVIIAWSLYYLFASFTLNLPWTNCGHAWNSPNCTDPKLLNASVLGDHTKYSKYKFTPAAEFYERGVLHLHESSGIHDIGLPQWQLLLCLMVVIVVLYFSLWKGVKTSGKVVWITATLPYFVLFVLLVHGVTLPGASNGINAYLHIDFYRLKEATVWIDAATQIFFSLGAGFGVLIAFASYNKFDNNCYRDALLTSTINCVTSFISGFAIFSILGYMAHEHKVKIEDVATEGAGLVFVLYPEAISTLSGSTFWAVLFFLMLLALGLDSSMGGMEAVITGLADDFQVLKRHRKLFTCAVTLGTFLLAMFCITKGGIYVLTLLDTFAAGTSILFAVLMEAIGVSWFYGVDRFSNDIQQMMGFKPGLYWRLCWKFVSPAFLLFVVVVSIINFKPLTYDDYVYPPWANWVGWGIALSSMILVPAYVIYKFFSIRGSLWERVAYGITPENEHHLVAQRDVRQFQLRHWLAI
As to the kind of experiment: synaptosomal noradrenaline uptake inhibition (NA uptake inhibition). Format: biochemical. Particulars: for inhibition at 1 µM: read-out: NA Uptake Inhibition at 1 μM, 1 μM in the assay, synaptosomes from rat hypothalamus; for NA Uptake Inhibition at 1 μM: 1 μM in the assay, synaptosomes from rat hypothalamus. The method, then: In order to carry out these in vitro studies, synaptosomes are isolated fresh from rat brains. In each case a so-called “P2” fraction is used, which is prepared according to the protocol of Gray and Whittaker (E. G. Gray and V. P. Whittaker (1962) J. Anat. 76, 79-88).
(in each case N=4, i.e. mean values±SEM from 4 independent series of experiments that were carried out in the form of triple parallel experiments).
as §1

Assay [4] concerns benzothiazepine binding site of the L-type calcium channel. As to the kind of experiment: Diltiazem binding, L calcium channel. On the set-up: species or system rat. As to conditions: 10 μM, percentage inhibition, [3H]-cis-(+)-diltiazem 5 nM, rat cerebral cortex membranes. The method, then: Binding Investigations in the L Calcium Channel
Benzothiazepine Binding Site (Diltiazem Binding)
The biological membrane material was isolated from the rat cerebral cortex. [^3H]-cis-(+)-diltiazem (5 nM in the assay) was used as ligand. The material was incubated for 20 minutes at 25° C. The radioactivity that is measured in the presence of (±)-diltiazem (10^−6 M in the assay) is defined as non-specific binding. After completion of incubation the non-bound fraction of the radioactive ligand is separated by means of a filtration process using Whatman Glasfiber GF/B membranes. The membranes are washed and the radioactivity is then measured using a β-counter. The method is based on the details published by Schoemaker and Langer (H. Schoemaker and S. Z. Langer (1985) Eur. J. Pharmacol. 111, 273-277).
as §1

Usually inhibition in vivo stands for the drop in the measured response relative to a control, in per cent. As usually defined, the inhibition is the share of the control response that was lost under treatment. In turn, `CN(C)C(c1ccc(Cl)c(Cl)c1)C1CCCCC1(O)Cc1ccccc1.Cl` (centres unmarked) [Example 39, 1-benzyl-2-[(3,4-dichlorophenyl)dimethylaminomethyl]cyclohexanol, hydrochloride] registered an inhibition in vivo at 10 mg/kg in assay [1] of 94%. The “BTX Binding at 10 μM” value in assay [2] worked out at 97%. Besides, in assay [3], the inhibition at 1 µM worked out at 61%. In addition, the “Diltiazem Binding at 10 μM” value in assay [4] amounted to 76%.
Compound `CN(C)C(c1ccc(Cl)c(Cl)c1)C1CCCCC1(O)CCc1ccccc1.Cl` (centres unmarked) [Example 40, 2-[(3,4-dichlorophenyl)dimethylaminomethyl]-1-phenethylcyclohexanol, hydrochloride] yielded an inhibition in vivo at 10 mg/kg in assay [1] of 72%. Besides, the “BTX Binding at 10 μM” value in assay [2] was found to be 98%. Besides, the inhibition at 1 µM in assay [3] is 58%. Also, the “Diltiazem Binding at 10 μM” value in assay [4] is recorded as 86%.
For `CN(C)C(c1ccc(F)cc1)C1CCCCC1(O)Cc1ccccc1.Cl` (centres unmarked) [Example 41, 1-benzyl-2-[dimethylamino-(4-fluorophenyl)methyl]cyclohexanol, hydrochloride], in that order: 88%, 94%, 100% and 87%.
With `CN(C)C(c1cccc(Cl)c1)C1CCCCC1(O)c1ccccc1.Cl` (centres unmarked) [Example 42], the “% Inhibition of the writhing reaction at 10 mg/kg intravenously” value in assay [1] was found to be 76%. Moreover, the “BTX Binding at 10 μM” value in assay [2] amounted to 89%. For the same compound, the “NA Uptake Inhibition at 1 μM” value in assay [3] is 82%. Besides, in assay [4], the “Diltiazem Binding at 10 μM” value was 50%.
Consider `CN(C)CC1CCCCC1(O)c1ccc(Cl)cc1Cl.Cl` (centres unmarked) [Example 43, 1-(2,4-dichlorophenyl)-2-(3-dimethylaminomethyl)-1-cyclohexanol, hydrochloride], for which, in assay [1], the “% Inhibition of the writhing reaction at 10 mg/kg intravenously” value turned out to be 80%. Also, the “BTX Binding at 10 μM” value in assay [2] came out at 94%. In assay [3], the “NA Uptake Inhibition at 1 μM” value is reported as 14%. Besides, the “Diltiazem Binding at 10 μM” value in assay [4] was 73%.
`CN(C)C(c1cccc(Cl)c1)C1CCCCC1(O)Cc1ccccc1.Cl` (centres unmarked) [Example 44, 1-benzyl-2-[(3-chlorophenyl)dimethylaminomethyl]cyclohexanol, hydrochloride] registered an inhibition in vivo at 10 mg/kg in assay [1] of 100%. Besides, the “BTX Binding at 10 μM” value in assay [2] is 95%. For the same compound, the inhibition at 1 µM in assay [3] came out at 99%. In assay [4], the “Diltiazem Binding at 10 μM” value is recorded as 71%.
Turning to `CN(C)C(c1ccccc1Cl)C1CCCCC1(O)Cc1ccccc1.Cl` (centres unmarked) [Example 45, 1-benzyl-2-[(2-chlorophenyl)dimethylaminomethyl]cyclohexanol, hydrochloride], at 10 mg/kg the inhibition in vivo in assay [1] was 82%. In addition, the “BTX Binding at 10 μM” value in assay [2] was 96%. In addition, in assay [3], the inhibition at 1 µM came to 89%. Also, the “Diltiazem Binding at 10 μM” value in assay [4] came to 67%.
For `CN(C)C(c1ccc(Cl)c(Cl)c1)C1CCCCC1(O)Cc1ccc(C(C)(C)C)cc1.Cl` (centres unmarked) [Example 46, 1-(4-tert.-butylbenzyl)-2-[(3,4-dichlorophenyl)dimethylaminomethyl]cyclohexanol, hydrochloride], in that order: 68%, 96%, 35% and 93%.
The compound `CN(C)C(c1ccc(F)cc1)C1CCCCC1(O)Cc1cccc(C(F)(F)F)c1.Cl` (centres unmarked) [Example 47, 2-[dimethylamino-(4-fluorophenyl)methyl]-1-(3-trifluoromethylbenzyl)cyclohexanol, hydrochloride] displayed an inhibition in vivo at 10 mg/kg in assay [1] of 89%. The “BTX Binding at 10 μM” value in assay [2] is on record as 100%. Besides, the inhibition at 1 µM in assay [3] came to 100%. The “Diltiazem Binding at 10 μM” value in assay [4] stood at 84%.
For the compound `CN(C)C(c1ccccc1)C1CCCCC1(O)C1CCCCC1.Cl` (centres unmarked) [Example 48, 2-(dimethylaminophenylmethyl)bicyclohexyl-1-ol, hydrochloride], testing at 10 mg/kg in assay [1] gave an inhibition in vivo of 94%. The “BTX Binding at 10 μM” value in assay [2] worked out at 96%. For the same compound, in assay [3], the inhibition at 1 µM worked out at 29%. Besides, in assay [4], the “Diltiazem Binding at 10 μM” value is given as 86%.
In assay [1], `COc1ccc(CC2(O)CCCCC2C(c2ccccc2)N(C)C)cc1.Cl` (centres unmarked) [Example 49, 2-(dimethylaminophenylmethyl)-1-(4-methoxybenzyl)cyclohexanol, hydrochloride] had an inhibition in vivo at 10 mg/kg of 100%. The “BTX Binding at 10 μM” value in assay [2] is 90%. Further, in assay [3], the inhibition at 1 µM was 100%. Also, in assay [4], the “Diltiazem Binding at 10 μM” value came to 93%.
For the compound `CN(C)C(c1ccccc1)C1CCCCC1(O)Cc1ccc(F)cc1F.Cl` (centres unmarked) [Example 50, 1-(2,4-difluorobenzyl)-2-(dimethylaminophenylmethyl)cyclohexanol, hydrochloride], in assay [1], the inhibition in vivo at 10 mg/kg worked out at 85%. The “BTX Binding at 10 μM” value in assay [2] is 95%. The inhibition at 1 µM in assay [3] was determined as 100%. Further, in assay [4], the “Diltiazem Binding at 10 μM” value was 93%.
For the compound `CN(C)C(c1cccc(Cl)c1)C1CCCCC1(O)Cc1ccc(C(C)(C)C)cc1.Cl` (centres unmarked) [Example 51, 1-(4-tert.-butylbenzyl)-2-[(3-chlorophenyl)dimethylaminomethyl]cyclohexanol, hydrochloride], the inhibition in vivo at 10 mg/kg in assay [1] came out at 99%. Moreover, the “BTX Binding at 10 μM” value in assay [2] is 99%. Moreover, in assay [3], the inhibition at 1 µM came to 10%. Besides, the “Diltiazem Binding at 10 μM” value in assay [4] came to 77%.
On to `CN(C)C(c1cccc(Oc2ccccc2)c1)C1CCCCC1(O)CCc1ccccc1.Cl` (centres unmarked) [Example 52, 2-[dimethylamino-(3-phenoxyphenyl)methyl]-1-phenethylcyclohexanol, hydrochloride], for which, in assay [1], testing at 10 mg/kg gave an inhibition in vivo of 70%. For the same compound, in assay [2], the “BTX Binding at 10 μM” value worked out at 99%. For the same compound, in assay [3], the inhibition at 1 µM worked out at 38%. In addition, the “Diltiazem Binding at 10 μM” value in assay [4] turned out to be 98%.
The corresponding values for `CN(C)C(c1cccc(Oc2ccccc2)c1)C1CCCCC1(O)Cc1cccc(C(F)(F)F)c1.Cl` (centres unmarked) [Example 53, 2-[dimethylamino-(3-phenoxyphenyl)methyl]-1-(3-trifluoromethylbenzyl)cyclohexanol, hydrochloride] are 90%, 97%, 49% and 92%.
The corresponding values for `CN(C)C(c1ccccc1)C1CCCCC1(O)Cc1cc(F)ccc1F.Cl` (centres unmarked) [Example 54, 1-(2,5-difluorobenzyl)-2-(dimethylaminophenylmethyl)cyclohexanol, hydrochloride] are 98%, 98%, 96% and 76%.
The corresponding values for `CN(C)C(c1ccccc1)C1CCCCC1(O)Cc1ccc(F)c(F)c1.Cl` (centres unmarked) [Example 55, 1-(3,4-difluorobenzyl)-2-(dimethylaminophenylmethyl)cyclohexanol, hydrochloride] are 92%, 94%, 38% and 76%.

The record behind these values is patent US6410790B1, “3-amin3-arylpropan-1-ol compounds, their preparation and use” (priority 1999, dated 2002).
